Source: patent US20260317324A1, “BIFUNCTIONAL COMPOUNDS FOR DEGRADING BRAF VIA UBIQUITIN PROTEOSOME PATHWAY” (Nurix Therapeutics, Inc., priority 2023, published 2026)

Experiments:
Assay type in all cases: cell-based
BRAF V600E = molecular target: T1, BRAF V600E (Homo sapiens, UniProt P15056, V600E); assay: BRAF HiBiT degradation assay, C-terminal HiBiT-tagged BRAF V600E A375 cells (clone 1F10), Nano-Glo HiBiT Lytic assay; conditions: A375 (BRAF V600E, Class 1); for DC50: DC50 at 50% degradation; for Dmax: A-375, observed Dmax, % protein degraded relative to DMSO control
T1 construct: endogenous C-terminal HiBiT fusion tag on BRAF V600E allele; endogenous in cells; host or cells: A375 clone 1F10 (CRISPR-Cas9 knock-in of the HiBiT tag; parental A375 from ATCC)
T1 sequence (P15056 whole entry V600E, the tested form may be a part): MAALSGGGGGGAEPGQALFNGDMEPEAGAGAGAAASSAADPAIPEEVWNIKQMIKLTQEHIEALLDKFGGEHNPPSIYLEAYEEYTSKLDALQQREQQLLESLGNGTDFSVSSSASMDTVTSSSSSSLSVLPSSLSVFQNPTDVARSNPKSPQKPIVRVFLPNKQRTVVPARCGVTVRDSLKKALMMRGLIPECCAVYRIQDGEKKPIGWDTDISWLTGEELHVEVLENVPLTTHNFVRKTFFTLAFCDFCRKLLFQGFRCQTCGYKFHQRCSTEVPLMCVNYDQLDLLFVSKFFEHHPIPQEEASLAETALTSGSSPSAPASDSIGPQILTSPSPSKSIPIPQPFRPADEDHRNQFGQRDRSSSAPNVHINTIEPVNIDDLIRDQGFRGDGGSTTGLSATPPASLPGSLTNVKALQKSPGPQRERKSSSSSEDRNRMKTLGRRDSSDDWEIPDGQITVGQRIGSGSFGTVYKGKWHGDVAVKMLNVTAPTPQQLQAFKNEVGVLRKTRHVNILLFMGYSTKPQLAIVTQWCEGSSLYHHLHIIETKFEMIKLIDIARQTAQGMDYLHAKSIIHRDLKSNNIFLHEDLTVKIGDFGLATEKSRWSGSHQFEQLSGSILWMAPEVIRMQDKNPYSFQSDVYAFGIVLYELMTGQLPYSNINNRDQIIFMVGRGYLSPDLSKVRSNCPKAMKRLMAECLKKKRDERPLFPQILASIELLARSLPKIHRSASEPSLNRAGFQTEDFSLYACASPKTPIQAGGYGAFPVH
In short: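 A375 cells with CRISPR knock-in C-terminal HiBiT on endogenous BRAF V600E (clone 1F10) were seeded and cultured 24 h at 37 °C, then dosed with an 11-point half-log series (1 μM to 0.01 nM, duplicate, 0.2% DMSO). Lytic HiBiT luminescence gave % protein remaining; DC50 was the fitted concentration at 50%.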

BRAF G466V = molecular target: T2, BRAF G466V (Homo sapiens, UniProt P15056, G466V); assay: BRAF HiBiT degradation assay, C-terminal HiBiT-tagged BRAF G466V overexpressed in HCT-116 BRAF−/− cells (clone 8), Nano-Glo HiBiT Lytic assay; conditions: BRAF G466V (Class 3), HCT-116 BRAF−/− cells; for DC50: DC50 at 50% degradation; for Dmax: observed Dmax relative to DMSO control
T2 construct: Horizon Discovery (HCT-116 BRAF−/− cells); host or cells: HCT-116 BRAF−/− cells, clone 8, lentiviral transduction
T2 sequence (P15056 whole entry G466V): as the sequence (P15056 whole entry V600E, the tested form may be a part) above, with G466V, E600V counted along it
In short: (§1)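 HCT-116 BRAF−/− cells stably expressing the tagged mutant were seeded at 3,000 cells/well and grown 24 h at 37 °C before an 11-point half-log series from 1 μM to 0.01 nM, run in duplicate at 0.2% DMSO. Lytic HiBiT luminescence gave % protein remaining versus DMSO controls; DC50 was the fitted concentration at 50%.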

BRAF G469A = molecular target: T3, BRAF G469A (Homo sapiens, UniProt P15056, G469A); assay: BRAF HiBiT degradation assay, C-terminal HiBiT-tagged BRAF G469A overexpressed in HCT-116 BRAF−/− cells (clone 34), Nano-Glo HiBiT Lytic assay; conditions: BRAF G469A (Class 2), HCT-116 BRAF−/− cells; for DC50: DC50 at 50% degradation; for Dmax: observed Dmax relative to DMSO control
T3 construct: Horizon Discovery (HCT-116 BRAF−/− cells); host or cells: HCT-116 BRAF−/− cells, clone 34, lentiviral transduction
T3 sequence (P15056 whole entry G469A): as the sequence (P15056 whole entry V600E, the tested form may be a part) above, with G469A, E600V counted along it
In short: as §1

BRAF D594G = molecular target: T4, BRAF D594G (Homo sapiens, UniProt P15056, D594G); assay: BRAF HiBiT degradation assay, C-terminal HiBiT-tagged BRAF D594G overexpressed in HCT-116 BRAF−/− cells (clone 63), Nano-Glo HiBiT Lytic assay; conditions: BRAF D594G (Class 3), HCT-116 BRAF−/− cells; for DC50: DC50 at 50% degradation; for Dmax: observed Dmax relative to DMSO control
T4 construct: Horizon Discovery (HCT-116 BRAF−/− cells); host or cells: HCT-116 BRAF−/− cells, clone 63, lentiviral transduction
T4 sequence (P15056 whole entry D594G): as the sequence (P15056 whole entry V600E, the tested form may be a part) above, with D594G, E600V counted along it
In short: as §1

SMILES | DC50 (BRAF V600E) [nM] | Dmax (BRAF V600E) [%] | DC50 (BRAF G466V) [nM] | Dmax (BRAF G466V) [%] | DC50 (BRAF G469A) [nM] | Dmax (BRAF G469A) [%] | DC50 (BRAF D594G) [nM] | Dmax (BRAF D594G) [%]
O=C1CC[C@H](c2ccc(N3CCC(CN4CCN(c5ccc(-n6cc(-c7cc(Cl)cc(NS(=O)(=O)N8CC[C@@H](F)C8)c7F)c(-c7ccncc7)n6)nc5)CC4)CC3)nc2)C(=O)N1 [Compound 297, (3R)—N-{5-chloro-3-[1-(5-{4-[(1-{5-[(3R)-2,6-dioxopiperidin-3-yl]pyridin-2-yl}piperidin-4-yl)methyl]piperazin-1-yl}pyridin-2-yl)-3-(pyridin-4-yl)-1H-pyrazol-4-yl]-2-fluorophenyl}-3-fluoropyrrolidine-1-sulfonamide] | < 10 | > 70 | < 10 | > 70 | < 10 | > 70 | < 10 | > 70
O=C1CC[C@H](c2ccc(N3CCC(CN4CCN(c5ccc(-n6cc(-c7cc(F)cc(NS(=O)(=O)N8CCCC8)c7F)c(-c7ccncc7)n6)cc5)CC4)CC3)cc2)C(=O)N1 [Compound 299, N-{3-[1-(4-{4-[(1-{4-[(3R)-2,6-dioxopiperidin-3-yl]phenyl}piperidin-4-yl)methyl]piperazin-1-yl}phenyl)-3-(pyridin-4-yl)-1H-pyrazol-4-yl]-2,5-difluorophenyl}pyrrolidine-1-sulfonamide] | < 10 | > 70 | < 10 | > 70 | 10 to 50 | 30 to 70 | < 10 | 30 to 70
O=C1CCN(c2ccc(N3CCC(CN4CCN(c5ccc(-n6cc(-c7cc(F)cc(NS(=O)(=O)N8CCCC8)c7F)c(-c7ccncc7)n6)cc5)CC4)CC3)cc2)C(=O)N1 [Compound 300, N-[3-(1-{4-[4-({1-[4-(2,4-dioxo-1,3-diazinan-1-yl)phenyl]piperidin-4-yl}methyl)piperazin-1-yl]phenyl}-3-(pyridin-4-yl)-1H-pyrazol-4-yl)-2,5-difluorophenyl]pyrrolidine-1-sulfonamide] | 10 to 50 | > 70 | < 10 | > 70 | 50 to 500 | 30 to 70 | < 10 | 30 to 70
O=C1CC[C@H](c2ccc(N3CCC(CN4CCN(c5ccc(-n6cc(-c7cc(F)cc(NS(=O)(=O)N8CCCC8)c7F)c(-c7ccncc7)n6)cc5)CC4)CC3)nc2)C(=O)N1 [Compound 301, N-{3-[1-(4-{4-[(1-{5-[(3R)-2,6-dioxopiperidin-3-yl]pyridin-2-yl}piperidin-4-yl)methyl]piperazin-1-yl}phenyl)-3-(pyridin-4-yl)-1H-pyrazol-4-yl]-2,5-difluorophenyl}pyrrolidine-1-sulfonamide] | < 10 | > 70 | < 10 | > 70 | 10 to 50 | > 70 | < 10 | 30 to 70
O=C1CC[C@H](c2ccc(N3CCC(CN4CCN(c5ccc(-n6cc(-c7cc(F)cc(NS(=O)(=O)N8CC[C@@H](F)C8)c7F)c(-c7ccncc7)n6)nc5)CC4)CC3)cc2)C(=O)N1 [Compound 302, (3R)—N-{3-[1-(5-{4-[(1-{4-[(3R)-2,6-dioxopiperidin-3-yl]phenyl}piperidin-4-yl)methyl]piperazin-1-yl}pyridin-2-yl)-3-(pyridin-4-yl)-1H-pyrazol-4-yl]-2,5-difluorophenyl}-3-fluoropyrrolidine-1-sulfonamide] | < 10 | > 70 | < 10 | > 70 | 10 to 50 | 30 to 70 | < 10 | > 70

The next lines start with the values.

DC50 (BRAF V600E) [nM] | Dmax (BRAF V600E) [%] | DC50 (BRAF G466V) [nM] | Dmax (BRAF G466V) [%] | DC50 (BRAF G469A) [nM] | Dmax (BRAF G469A) [%] | DC50 (BRAF D594G) [nM] | Dmax (BRAF D594G) [%] | SMILES
< 10 | > 70 | 10 to 50 | 30 to 70 | 50 to 500 | 30 to 70 | < 10 | 30 to 70 | O=C1CCN(c2ccc(N3CCC(CN4CCN(c5ccc(-n6cc(-c7cc(F)cc(NS(=O)(=O)N8CC[C@@H](F)C8)c7F)c(-c7ccncc7)n6)nc5)CC4)CC3)cc2)C(=O)N1 [Compound 303, (3R)—N-[3-(1-{5-[4-({1-[4-(2,4-dioxo-1,3-diazinan-1-yl)phenyl]piperidin-4-yl}methyl)piperazin-1-yl]pyridin-2-yl}-3-(pyridin-4-yl)-1H-pyrazol-4-yl)-2,5-difluorophenyl]-3-fluoropyrrolidine-1-sulfonamide]
< 10 | > 70 | < 10 | > 70 | < 10 | > 70 | < 10 | > 70 | O=C1CC[C@H](c2ccc(N3CCC(CN4CCN(c5ccc(-n6cc(-c7cc(F)cc(NS(=O)(=O)N8CC[C@@H](F)C8)c7F)c(-c7ccncc7)n6)nc5)CC4)CC3)nc2)C(=O)N1 [Compound 305, (3R)—N-{3-[1-(5-{4-[(1-{5-[(3R)-2,6-dioxopiperidin-3-yl]pyridin-2-yl}piperidin-4-yl)methyl]piperazin-1-yl}pyridin-2-yl)-3-(pyridin-4-yl)-1H-pyrazol-4-yl]-2,5-difluorophenyl}-3-fluoropyrrolidine-1-sulfonamide]
< 10 | > 70 | < 10 | > 70 | 10 to 50 | 30 to 70 | < 10 | 30 to 70 | CCN(C)S(=O)(=O)Nc1cc(Cl)cc(-c2cn(-c3ccc(N4CCN(CC5CCN(c6ccc([C@H]7CCC(=O)NC7=O)cc6)CC5)CC4)cc3)nc2-c2ccncc2)c1F [Compound 306, (3R)-3-(4-{4-[(4-{4-[4-(5-chloro-3-{[ethyl(methyl)sulfamoyl]amino}-2-fluorophenyl)-3-(pyridin-4-yl)-1H-pyrazol-1-yl]phenyl}piperazin-1-yl)methyl]piperidin-1-yl}phenyl)piperidine-2,6-dione]
< 10 | > 70 | < 10 | > 70 | 50 to 500 | 30 to 70 | 10 to 50 | 30 to 70 | CCN(C)S(=O)(=O)Nc1cc(Cl)cc(-c2cn(-c3ccc(N4CCN(CC5CCN(c6ccc(N7CCC(=O)NC7=O)cc6)CC5)CC4)cc3)nc2-c2ccncc2)c1F [Compound 307, 1-(4-{4-[(4-{4-[4-(5-chloro-3-{[ethyl(methyl)sulfamoyl]amino}-2-fluorophenyl)-3-(pyridin-4-yl)-1H-pyrazol-1-yl]phenyl}piperazin-1-yl)methyl]piperidin-1-yl}phenyl)-1,3-diazinane-2,4-dione]
< 10 | > 70 | < 10 | > 70 | 10 to 50 | > 70 | < 10 | 30 to 70 | CCN(C)S(=O)(=O)Nc1cc(Cl)cc(-c2cn(-c3ccc(N4CCN(CC5CCN(c6ccc([C@H]7CCC(=O)NC7=O)cn6)CC5)CC4)cc3)nc2-c2ccncc2)c1F [Compound 309, (3R)-3-(6-{4-[(4-{4-[4-(5-chloro-3-{[ethyl(methyl)sulfamoyl]amino}-2-fluorophenyl)-3-(pyridin-4-yl)-1H-pyrazol-1-yl]phenyl}piperazin-1-yl)methyl]piperidin-1-yl}pyridin-3-yl)piperidine-2,6-dione]
